The source made the active and inactive calls. The rule behind the calls is not given here.
Key:
HeLa [1] = assay: Cytotoxicity against human HeLa cells at 32 uM incubated for 24 hrs by CCK-8 assay; format: functional, cell-based
Staphylococcus aureus [2] = assay: Antibacterial activity against methicillin resistant Staphylococcus aureus assessed as bacterial viability up to 12 uM; format: functional, organism-based
Cell membrane [3] = assay: Induction of Inner membrane integrity in Staphylococcus aureus at 128 uM measured for 40 mins in presence of cardiolipin by T12 dye based analysis
Cell membrane [4] = assay: Induction of cell membrane damage in Staphylococcus aureus assessed as increase in fluorescence intensity at 128 uM measured for 40 mins propidium iodide staining based analysis
Escherichia coli [5] = assay: Antibacterial activity against Escherichia coli incubated for 90 mins; format: functional, organism-based
Staphylococcus aureus [6] = assay: Antibacterial activity against methicillin resistant Staphylococcus aureus assessed as bacterial viability at 10 uM incubated for 90 mins relative to control; format: functional; details: 1.5 h
Staphylococcus aureus [7] = assay: Antibacterial activity against Staphylococcus aureus incubated for 90 mins; format: functional, organism-based; details: dose 10.0 µM
Cell membrane [8] = assay: Induction of Inner membrane integrity in Staphylococcus aureus at 128 uM measured for 40 mins in presence of phosphatidylglycerol by T12 dye based analysis; format: subcellular
Cell membrane [9] = assay: Induction of Inner membrane integrity in Staphylococcus aureus at 128 uM measured for 40 mins T12 dye based analysis; format: subcellular
Staphylococcus aureus [10] = assay: Antibacterial activity against Staphylococcus aureus at 0.5 times MIC measured after 20 passages; format: functional, organism-based
Staphylococcus aureus [11] = assay: Antibacterial activity against Staphylococcus aureus assessed as increase in fluorescence intensity incubated for 20 mins; format: functional, organism-based
Staphylococcus aureus [12] = assay: Antibacterial activity against methicillin resistant Staphylococcus aureus assessed as bacterial viability at 4 uM incubated for 90 mins relative to control; format: functional; details: 1.5 h
Staphylococcus aureus [13] = assay: Bactericidal activity against Staphylococcus aureus assessed as bacterial viability at 4 uM pretreated with compound for 60 mins followed by white light irradiation for 30 mins by plate counting method; format: functional; details: time 90 min, 1.5 h
Staphylococcus aureus [14] = assay: Antibiofilm activity in Staphylococcus aureus assessed as inhibition of biofilm formation incubated for 48 hrs by SYTO 9 staining based CLSM analysis; format: functional, organism-based
Staphylococcus aureus [15] = assay: Antibiofilm activity in Staphylococcus aureus assessed as inhibition of biofilm formation incubated for 48 hrs in presence of white light irradiation; format: functional, organism-based; details: dose <= 32.0 µM
Staphylococcus aureus [16] = assay: Induction of ROS accumulation in Staphylococcus aureus assessed as fold increase in fluorescence intensity at 1 uM by DCFH-DA staining based analysis; format: functional
Staphylococcus aureus [17] = assay: Antibacterial activity against methicillin resistant Staphylococcus aureus infected in Kunming mouse model of skin wound infection assessed as effect on wound healing rate at 5 mg/kg administered for 7 days in presence of white light irradiation; format: functional, organism-based; details: time 7.0 day
Staphylococcus aureus [18] = assay: Antibiofilm activity in Staphylococcus aureus assessed as inhibition of biofilm formation at 32 uM incubated for 48 hrs in presence of white light irradiation; format: functional; details: light or radiation study
Staphylococcus aureus [19] = assay: Antibiofilm activity in Staphylococcus aureus assessed as inhibition of biofilm formation incubated for 48 hrs in presence of white light irradiation by SYTO 9 staining based CLSM analysis; format: functional, organism-based
Cell membrane [20] = assay: Induction of cytoplasmic membrane permeabilization in Staphylococcus aureus assessed as increase in fluorescence intensity at 16 uM incubated for […] by CLSM analysis
Staphylococcus aureus [21] = assay: Antipersister-activity against Staphylococcus aureus assessed as reduction in bacterial colony count preincubated with 100 times of MIC of rifampicin for 24 hrs followed by compound addition and measured after 8 hrs by drop plate counting method; format: functional, organism-based
Staphylococcus aureus [22] = assay: Bactericidal activity against Staphylococcus aureus assessed as bacterial viability at 4 uM by plate counting method relative to control; format: functional
Cell membrane [23] = assay: Induction of cell membrane damage in Staphylococcus aureus at 20 uM incubated for 60 mins by SEM analysis; format: subcellular
Staphylococcus aureus [24] = assay: Antibacterial activity against methicillin resistant Staphylococcus aureus infected in Kunming mouse model of skin wound infection assessed as effect on wound healing rate at 5 mg/kg administered for 7 days; format: functional, organism-based; details: time 7.0 day
Escherichia coli [25] = assay: Antibacterial activity against Escherichia coli assessed as effect on bacterial growth incubated for 90 mins; format: functional, organism-based
Staphylococcus aureus [26] = assay: Induction of ROS accumulation in Staphylococcus aureus assessed as increase in singlet oxygen level by measuring reduction in ABDA absorption peak at 10 uM irradiated with 650 nm 50 mW/cm2 light for 5 mins; format: functional, organism-based
Cell membrane [27] = assay: Induction of Inner membrane integrity in Staphylococcus aureus measured for 40 mins in presence of phosphatidylglycerol by T12 dye based analysis; format: subcellular; details: dose 128.0 µM
Staphylococcus aureus [28] = assay: Bactericidal activity against methicillin-resistant Staphylococcus aureus assessed as bacterial viability at 4 uM pretreated with compound for 60 mins followed by white light irradiation for 30 mins by plate counting method; format: functional; details: time 90 min, 1.5 h
RAW264.7 = assay: Cytotoxicity against mouse RAW264.7 cells at 32 uM incubated for 24 hrs by CCK-8 assay; format: toxicity, cell-based; details: raw264.7, 24 h
Staphylococcus aureus [29] = assay: Antibiofilm activity in Staphylococcus aureus assessed as inhibition of biofilm formation at 8 uM incubated for 48 hrs; format: functional, organism-based
Cell membrane [30] = assay: Induction of cell membrane damage in Staphylococcus aureus at 20 uM incubated for 60 mins by TEM analysis; format: subcellular
Staphylococcus aureus [31] = assay: Drug resistance, ratio of MIC for Staphylococcus aureus after 20 passages to MIC for Staphylococcus aureus after initial exposure; format: functional
Escherichia coli [32] = assay: Antibacterial activity against Escherichia coli assessed as change in surface zeta potential at 16 uM incubated for 20 mins; format: functional, organism-based
Cell membrane [33] = assay: Induction of cytoplasmic membrane permeabilization in Staphylococcus aureus assessed as increase in fluorescence intensity at 16 uM incubated for […] by SYTO 9 staining based analysis
Staphylococcus aureus [34] = assay: Induction of ROS accumulation in Staphylococcus aureus assessed as increase in singlet oxygen level by measuring reduction in HPF absorption peak at 10 uM irradiated with 650 nm 50 mW/cm2 light for 5 mins; format: functional, organism-based
Staphylococcus aureus [35] = assay: Antibacterial activity against Staphylococcus aureus assessed as change in surface zeta potential at 16 uM incubated for 20 mins; format: functional, organism-based
[36] = Hemolytic activity in sheep red blood cells assessed as hemolysis; format: toxicity, cell-based, Ovis aries, Erythrocyte
Staphylococcus aureus [37] = assay: Bactericidal activity against Staphylococcus aureus assessed as reduction in bacterial colony count measured at 2 hrs; format: functional, organism-based
Cell membrane [38] = assay: Induction of Inner membrane integrity in Staphylococcus aureus measured for 40 mins in presence of cardiolipin by T12 dye based analysis; format: subcellular; details: dose 128.0 µM
HeLa [39] = assay: Cytotoxicity against human HeLa cells at 32 uM incubated for 24 hrs by Calcein AM assay; format: functional, cell-based
HeLa [40] = assay: Cytotoxicity against human HeLa cells at 32 uM measured after 60 mins by Calcein AM assay; format: functional, cell-based
HeLa [41] = assay: Cytotoxicity against human HeLa cells assessed as dead cells at 32 uM measured after 24 hrs by PI staining based analysis; format: functional, cell-based
Cell membrane [42] = assay: Induction of cell membrane damage in Staphylococcus aureus assessed as decrease in fluorescence intensity at 128 uM measured for 40 mins propidium iodide staining based analysis; format: subcellular

## C[N+](C)(C)CCCOc1ccc(/C=C/c2ccccc2)cc1.[Br-]
HeLa [1]
  Activity: Active
Staphylococcus aureus [2]
  Activity: Active
Cell membrane [3]
  Activity: inactive
Cell membrane [4]
  Activity: Active
Escherichia coli [5]
  Activity: Active
Staphylococcus aureus [6]
  Activity: 60%
Staphylococcus aureus [7]
  Activity: Active
Cell membrane [8]
  Activity: inactive
Cell membrane [9]
  Activity: Active

## C[N+](C)(C)CCCOc1ccc(/C=C/c2ccc(N(c3ccccc3)c3ccccc3)cc2)cc1.[Br-]
Staphylococcus aureus [10]
  Activity: Active
HeLa [1]
  Activity: Active
Staphylococcus aureus [11]
  Activity: Active
Staphylococcus aureus [12]
  Activity: 3%
Staphylococcus aureus [13]
  Activity: 0.5%
Staphylococcus aureus [14]
  Activity: Active
Staphylococcus aureus [2]
  Activity: Active
Staphylococcus aureus [15]
  Activity: Dose-dependent-effect
Staphylococcus aureus [16]
  fold change (FC): 100
Staphylococcus aureus [17]
  Activity: Active
Staphylococcus aureus [18]
  inhibition at 32 µM: 100%
Staphylococcus aureus [19]
  Activity: Active
Cell membrane [20]
  Activity: Active
Staphylococcus aureus [21]
  Activity: Active
Staphylococcus aureus [22]
  Activity: 11%
Cell membrane [23]
  Activity: Active
Escherichia coli [5]
  Activity: Active
Staphylococcus aureus [24]
  Activity: Active
Staphylococcus aureus [7]
  Activity: Active
Escherichia coli [25]
  Activity: inactive
Staphylococcus aureus [26]
  Activity: inactive
Cell membrane [27]
  Activity: Dose-dependent-effect
Staphylococcus aureus [28]
  Activity: ~100%
RAW264.7
  Activity: Non-toxic
Cell membrane [9]
  Activity: Active
Staphylococcus aureus [29]
  Activity: Active
Cell membrane [30]
  Activity: Active
Staphylococcus aureus [31]
  Ratio: 64
Escherichia coli [32]
  Activity: Active
Cell membrane [33]
  Activity: Active
Staphylococcus aureus [34]
  Activity: Active
Staphylococcus aureus [35]
  Activity: Active
[36]
  HC50: > 900 µM
Staphylococcus aureus [37]
  Activity: Active
Cell membrane [38]
  Activity: Dose-dependent-effect

## CCCC[N+](C)(C)CCCOc1ccc(/C=C/c2ccc(N(c3ccccc3)c3ccccc3)cc2)cc1.[Br-]
HeLa [1]
  Activity: Active
Staphylococcus aureus [12]
  Activity: 2%
Staphylococcus aureus [2]
  Activity: Active
Cell membrane [20]
  Activity: Active
Cell membrane [23]
  Activity: Active
Escherichia coli [5]
  Activity: Active
Staphylococcus aureus [7]
  Activity: Active
Escherichia coli [25]
  Activity: inactive
Cell membrane [27]
  Activity: Dose-dependent-effect
Cell membrane [9]
  Activity: Active
Escherichia coli [32]
  Activity: Active
Cell membrane [33]
  Activity: Active
Staphylococcus aureus [35]
  Activity: Active
Cell membrane [38]
  Activity: Dose-dependent-effect

## CCCCCCCCCC[N+](C)(C)CCCOc1ccc(/C=C/c2ccccc2)cc1.[Br-]
Staphylococcus aureus [2]
  Activity: Active
Cell membrane [4]
  Activity: Active
Cell membrane [23]
  Activity: Active
Escherichia coli [5]
  Activity: Active
Staphylococcus aureus [6]
  Activity: 0.1%
Staphylococcus aureus [7]
  Activity: Active
Cell membrane [27]
  Activity: Dose-dependent-effect
Cell membrane [9]
  Activity: Active
Cell membrane [38]
  Activity: Dose-dependent-effect

## CCCCCCCC[N+](C)(C)CCCOc1ccc(/C=C/c2ccccc2)cc1.[Br-]
HeLa [39]
  Activity: inactive
Staphylococcus aureus [2]
  Activity: Active
Cell membrane [4]
  Activity: Active
Cell membrane [23]
  Activity: Active
Escherichia coli [5]
  Activity: Active
Staphylococcus aureus [6]
  Activity: 4%
Staphylococcus aureus [7]
  Activity: Active
Cell membrane [27]
  Activity: Dose-dependent-effect
Cell membrane [9]
  Activity: Active
HeLa [40]
  Activity: inactive
HeLa [41]
  Activity: Active
Cell membrane [38]
  Activity: Dose-dependent-effect

## CCCCCCCCCC[N+](C)(C)CCCOc1ccc(/C=C/c2ccc(N(c3ccccc3)c3ccccc3)cc2)cc1.[Br-]
Staphylococcus aureus [12]
  Activity: 52%
Staphylococcus aureus [2]
  Activity: Active
Cell membrane [3]
  Activity: inactive
Escherichia coli [5]
  Activity: Active
Staphylococcus aureus [7]
  Activity: Active
Cell membrane [8]
  Activity: inactive
Escherichia coli [25]
  Activity: inactive
Cell membrane [9]
  Activity: Active
Escherichia coli [32]
  Activity: Active
Cell membrane [42]
  Activity: Active

## CCCCCCCC[N+](C)(C)CCCOc1ccc(/C=C/c2ccc(N(c3ccccc3)c3ccccc3)cc2)cc1.[Br-]
Staphylococcus aureus [12]
  Activity: 28%
HeLa [39]
  Activity: inactive
Staphylococcus aureus [2]
  Activity: Active
Cell membrane [3]
  Activity: inactive
Escherichia coli [5]
  Activity: Active
Staphylococcus aureus [7]
  Activity: Active
Cell membrane [8]
  Activity: inactive
Escherichia coli [25]
  Activity: inactive
Cell membrane [9]
  Activity: Active
HeLa [40]
  Activity: inactive
Escherichia coli [32]
  Activity: Active
HeLa [41]
  Activity: Active
[36]
  HC50: 75 µM
Cell membrane [42]
  Activity: Active

## CCCC[N+](C)(C)CCCOc1ccc(/C=C/c2ccccc2)cc1.[Br-]
HeLa [1]
  Activity: Active
Staphylococcus aureus [2]
  Activity: Active
Cell membrane [3]
  Activity: inactive
Cell membrane [4]
  Activity: Active
Escherichia coli [5]
  Activity: Active
Staphylococcus aureus [6]
  Activity: 55%
Staphylococcus aureus [7]
  Activity: Active
Cell membrane [8]
  Activity: inactive
Cell membrane [9]
  Activity: Active
